Experimental findings from US6458806B1, “Aryl alkenamides derivatives as MCP-1 antagonists” (Millennium Pharmaceuticals, Inc., priority 1996, dated 2002) are described below.

Counter-ions that a name gives are not always drawn.

By IC50 is commonly meant the concentration that gives 50% inhibition. As a reminder, the melting point is the temperature, or range, at which the solid turns liquid.

For one data set, the target named is T1, MCP-1 receptor (Homo sapiens, UniProt P41597).
T1 construct: host or cells: THP-1 cell membranes
T1 sequence (P41597 whole entry): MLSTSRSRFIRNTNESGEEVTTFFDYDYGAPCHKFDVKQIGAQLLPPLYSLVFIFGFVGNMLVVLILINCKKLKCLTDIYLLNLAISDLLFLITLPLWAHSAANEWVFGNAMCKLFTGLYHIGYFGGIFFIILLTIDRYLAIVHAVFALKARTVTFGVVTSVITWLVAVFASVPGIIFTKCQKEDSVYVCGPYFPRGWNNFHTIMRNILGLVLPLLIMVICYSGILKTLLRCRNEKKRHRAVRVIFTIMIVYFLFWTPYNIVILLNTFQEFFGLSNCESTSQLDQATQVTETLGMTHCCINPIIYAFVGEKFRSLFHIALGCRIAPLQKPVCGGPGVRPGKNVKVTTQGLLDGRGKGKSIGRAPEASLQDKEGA
As to the kind of experiment: MCP-1 binding assay (125I-MCP-1, THP-1 cell membranes). As to conditions: 0.2 nM 125I-labeled MCP-1, averages of several or two experiments, read-out: Inhibition Of MCP-1 Binding IC50. The procedure: Membranes used in the MCP-1 binding assay were prepared from THP-1 cells (human monocytic cell line source—American Type Culture Collection, Tumor Immunology Bank #202, Rockville, Md., accession no. ATCC TIB 202). Cells were harvested by centrifugation and washed twice in ice-cold PBS (phosphate-buffered saline) and the cell pellet was frozen at −80° C. in some cases. Cells were resuspended in ice-cold lysis buffer 5mM HEPES (2-(4N-,[2-hydroxyethyl] piperazin-1-yl)-N′-(2-ethanesulfonic acid), pH 7.5, 2 mM EDTA (ethylenediaminetetraacetic acid), 5 ug/ml each leupeptin, aprotinin, chymostatin (protease inhibitors), and 100 ug/ml PMSF (phenylmethane sulfonyl fluoride—also a protease inhibitor)) at a concentration of 5×10^7 cells/ml. […] Typical binding assays used 10-20 ug/well of total membrane protein as determined with a standard protein assay (e.g. BioRad, Richmond, Calif.).
For binding, 10-20 ug total membrane protein were included in the binding reaction along with 0.2 nM I^125-labeled MCP-1 (Amersham, Arlington Heights, Ill.) with or without unlabeled competitor MCP-1 (Peprotech, Rocky Hill, N.J.) (at 250-500 nM). […] Filters were dried and counted in a Beta-Plate scintillation counter using standard scintillation fluid. […]
IC50s were calculated using a non-linear 3-parameter logistic curve fit. […]
For the molecule `O=C(C=CC=Cc1ccc(Cl)c(Cl)c1)NCCCN1CCOCC1` [Example 2, 5-(3,4-Dichloro-phenyl)-penta-2,4-dienoic Acid (3-morpholin-4-yl-propyl)-amide], the IC50 amounted to 10.8 µM.

System in the next data set: not given
Test: not given
Details: not given
Turning to `O=C(/C=C/C=C/c1ccc(Cl)c(Cl)c1)NCCCN1CCCCC1` (as salt: HCl) [Example 1, 5-(3,4-Dichloro-phenyl)-penta-2,4-dienoic Acid (3-piperidin-1-yl-propyl)-amide-HCl], the melting point is 192 to 194 °C.

Consider `O=C(C=CC=Cc1ccc(Cl)c(Cl)c1)NCCCN1CCOCC1` [Example 2, 5-(3,4-Dichloro-phenyl)-penta-2,4-dienoic Acid (3-morpholin-4-yl-propyl)-amide], for which the melting point fell in the range of 130 to 132 °C.

Consider `Cc1ccc(/C=C/C=C/C(=O)NCCCN2CCCCC2)cc1` [Example 9, (2E,4E)-5-p-Tolyl-penta-2,4-dienoic Acid (3-piperidin-1-yl-propyl)-amide], for which the melting point was 40 to 50 °C.

`COc1ccc(/C=C/C=C/C(=O)NCCCN2CCCCC2)cc1` [Example 10, (2E,4E)-5-(4-Methoxy-phenyl)-penta-2,4-dienoic Acid (3-piperidin-1-yl-propyl)-amide] showed a melting point of 69 to 73 °C.

As to `O=C(/C=C/C=C/c1ccc([N+](=O)[O-])cc1)NCCCN1CCCCC1` [Example 11, (2E,4E)-5-(4-Nitro-phenyl)-penta-2,4-dienoic Acid (3-piperidin-1-yl-propyl)-amide], the melting point lay within 225 to 226 °C.

Turning to `O=C(/C=C/C=C/c1ccc(Cl)cc1)NCCCN1CCCCC1` [Example 12, (2E,4E)-5-(4-Chloro-phenyl)-penta-2,4-dienoic Acid (3-piperidin-1-yl-propyl)-amide], the melting point lay within 60 to 62 °C.

On to `O=C(/C=C/C=C/c1ccccc1)NCCCN1CCCCC1` [Example 13, (2E,4E)-5-Phenyl-penta-2,4-dienoic Acid (3-piperidin-1-yl-propyl)-amide], for which the melting point was 111 to 115 °C.

Regarding `O=C(/C=C/C=C/c1ccc(-c2ccccc2)cc1)NCCCN1CCCCC1` [Example 14, (2E,4E)-5-Biphenyl-4-yl-penta-2,4-dienoic Acid (3-piperidin-1-yl-propyl)-amide], the melting point was 165 to 168 °C.

Regarding `O=C(/C=C/C=C/c1ccc2ccccc2c1)NCCCN1CCCCC1` [Example 15, (2E,4E)-5-Naphthalen-2-yl-penta-2,4-dienoic Acid (3-piperidin-1-yl-propyl)-amide], the melting point was 150 to 156 °C.

In the case of `O=C(/C=C/C=C/c1cc(Cl)cc(Cl)c1)NCCCN1CCCCC1` [Example 16, (2E,4E)-5-(3,5-Dichloro-phenyl)-penta-2,4-dienoic Acid (3-piperidin-1-yl-propyl)-amide], the melting point was in the range of 186 to 187 °C.

`O=C(/C=C/C=C/c1ccc(Cl)cc1Cl)NCCCN1CCCCC1` [Example 17, (2E,4E)-5-(2,4-Dichloro-phenyl)-penta-2,4-dienoic Acid (3-piperidin-1-yl-propyl)-amide] showed a melting point of 66 to 69 °C.

In turn, `CC(/C=C/c1ccc(Cl)c(Cl)c1)=C\C(=O)NCCCN1CCCCC1` [Example 19, (2E,4E)-5-(3,4-Dichloro-phenyl)-3-methyl-penta-2,4-dienoic Acid (3-piperidin-1-yl-propyl)-amide] yielded a melting point of 165 to 170 °C.

Molecule `CC(=C/C(=O)NCCCN1CCCCC1)/C=C/c1ccc(Cl)c(Cl)c1` [Example 20, (2Z,4E)-5-(3,4-Dichloro-phenyl)-3-methyl-penta-2,4-dienoic Acid (3-piperidin-1-yl-propyl)-amide] returned a melting point of 50 to 60 °C.

For `C/C(=C\C=C\C(=O)NCCCN1CCCCC1)c1ccc(Cl)c(Cl)c1` [Example 21, (2E,4E)-5-(3,4-Dichloro-phenyl)-hexa-2,4-dienoic Acid (3-piperidin-1-yl-propyl)amide], the melting point lay within 65 to 70 °C.

With `O=C(/C=C/C=C(c1ccccc1)c1ccccc1)NCCCN1CCCCC1` [Example 22, (2E) -5,5-Diphenyl-penta-2,4-dienoic acid (3-piperidin-1-yl-propyl)-amide], the melting point is 55 to 65 °C.
